Assay results from patent US10738028B2, “Spiro three-membered ring, spiro five-membered ring peptide deformylase inhibitor and use thereof in antibacteria and anti-tumor” (priority 2016, dated 2020).
Read-outs that look alike come from different tables or passages of the source.

Tests used:
Format in all cases: cell-based
[1] = tested on: Enterococcus faecalis (EFA); assay: MIC, two-fold agar dilution (CLSI), clinical isolates
Procedure, shortened: (§1)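 Following the American Clinical and Laboratory Standards Institute procedure, agar two-fold dilution served to determine minimum inhibitory concentrations.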

[2] = tested on: Enterococcus faecium (EFM); assay: as above
Procedure, shortened: as §1

[3] = tested on: Escherichia coli (including ESBLs, non-ESBLs); assay: as above; details: for Anti-bacterial activity (MIC), strain ECO+ 15-1: clinical isolate ECO+ 15-1; for Anti-bacterial activity (MIC), strain ECO+ 15-2: clinical isolate ECO+ 15-2; for Anti-bacterial activity (MIC), strain ECO+ 15-3: clinical isolate ECO+ 15-3; for Anti-bacterial activity (MIC), strain ECO+ 15-4: clinical isolate ECO+ 15-4; for Anti-bacterial activity (MIC), strain ECO− 15-1: clinical isolate ECO− 15-1; for Anti-bacterial activity (MIC), strain ECO− 15-2: clinical isolate ECO− 15-2; for Anti-bacterial activity (MIC), strain ECO− 15-3: clinical isolate ECO− 15-3; for Anti-bacterial activity (MIC), strain ECO− 15-4: clinical isolate ECO− 15-4
Procedure, shortened: as §1

[4] = tested on: Moraxella catarrhalis (BCA); assay: as above
Procedure, shortened: as §1

[5] = tested on: Streptococcus pneoumoniae (SPN); assay: as above
Procedure, shortened: as §1

[6] = tested on: methicillin-resistant Staphylococcus aureus (MRSA); assay: as above; details: for Anti-bacterial activity (MIC), strain MRSA 15-1: clinical isolate MRSA 15-1; for Anti-bacterial activity (MIC), strain MRSA 15-2: clinical isolate MRSA 15-2; for Anti-bacterial activity (MIC), strain MRSA 15-3: clinical isolate MRSA 15-3; for Anti-bacterial activity (MIC), strain MRSA 15-4: clinical isolate MRSA 15-4
Procedure, shortened: as §1

[7] = tested on: methicillin-resistant Staphylococcus epidermidis (MRSE); assay: as above; details: for Anti-bacterial activity (MIC), strain MRSE 15-1: clinical isolate MRSE 15-1; for Anti-bacterial activity (MIC), strain MRSE 15-2: clinical isolate MRSE 15-2; for Anti-bacterial activity (MIC), strain MRSE 15-3: clinical isolate MRSE 15-3; for Anti-bacterial activity (MIC), strain MRSE 15-7: clinical isolate MRSE 15-7
Procedure, shortened: as §1

[8] = tested on: methicillin-sensitive Staphylococcus aureus (MSSA); assay: as above; details: for Anti-bacterial activity (MIC), strain MSSA 15-3: clinical isolate MSSA 15-3; for Anti-bacterial activity (MIC), strain MSSA 15-4: clinical isolate MSSA 15-4; for Anti-bacterial activity (MIC), strain MSSA 15-5: clinical isolate MSSA 15-5; for Anti-bacterial activity (MIC), strain MSSA 15-6: clinical isolate MSSA 15-6
Procedure, shortened: as §1

[9] = tested on: methicillin-sensitive Staphylococcus epidermidis (MSSE); assay: as above; details: for Anti-bacterial activity (MIC), strain MSSE 15-3: clinical isolate MSSE 15-3; for Anti-bacterial activity (MIC), strain MSSE 15-4: clinical isolate MSSE 15-4; for Anti-bacterial activity (MIC), strain MSSE 15-5: clinical isolate MSSE 15-5; for Anti-bacterial activity (MIC), strain MSSE 15-6: clinical isolate MSSE 15-6
Procedure, shortened: as §1

[10] = tested on: HCT-116 colorectal cancer cell line; assay: CCK-8 proliferation inhibition; details: concentration of 30 μM, 72 hours, CCK-8; for inhibition at 30 µM: Homo sapiens, HCT-116, 72 h
Procedure, shortened: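 HCT-116 cells, seeded at 2000 cells/well in McCoy's 5A with 10% newborn bovine serum, were cultured overnight at 37° C., 5% CO2, then exposed to compound dilutions in medium for 72 hours. Viability was read with 1:10 diluted CCK-8; controls received 1‰ DMSO.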

[11] = tested on: A549 lung cancer cell line; assay: CCK-8 proliferation inhibition; details: concentration of 30 μM; for inhibition at 30 µM: Homo sapiens, A549, 72 h
Procedure, shortened: (§2)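 Plating at 2000 cells/well, then incubation overnight at 37° C. Next, a range of compound concentrations for 72 hours (control 1‰ DMSO). Finally, medium decanted and CCK-8 diluted 1:10 added.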

[12] = tested on: BEL-7402 liver cancer cell line; assay: CCK-8 proliferation inhibition; details: concentration of 30 μM; for Inhibition of proliferation, Liver cancer BEL-7402: 72 hours, 30 µM
Procedure, shortened: as §2

[13] = tested on: MGC-803 gastric cancer cell line; assay: CCK-8 proliferation inhibition; details: concentration of 30 μM; for inhibition at 30 µM: Homo sapiens, MGC-803, 72 h
Procedure, shortened: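 Cells were seeded at 2000 cells/well and cultured overnight at 37° C, 5% CO2, then exposed for 72 hours to compounds diluted from DMSO stocks. Controls received 1‰ DMSO. CCK-8 (1:10 diluted) replaced the medium. MGC-803 and Jurkat were grown in 1640, PC3 in F12, and MCF-7 in DMEM high glucose, each with 10% newborn bovine serum.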

## O=C(C[C@@H](CC1CCCC1)C(=O)N1CC2(CC2)C[C@H]1C(=O)Nc1cccnn1)NO [Example 66]
[1]; strain EFA 15-1
  Anti-bacterial activity (MIC): 4 µg/mL
[1]; strain EFA 15-2
  Anti-bacterial activity (MIC): 4 µg/mL
[1]; strain EFA 15-3
  Anti-bacterial activity (MIC): 2 µg/mL
[1]; strain EFA 15-4
  Anti-bacterial activity (MIC): 16 µg/mL
[1]; strain EFA 15-5
  Anti-bacterial activity (MIC): 16 µg/mL
[1]; strain EFA 15-6
  Anti-bacterial activity (MIC): 16 µg/mL
[1]; strain EFA 15-9
  Anti-bacterial activity (MIC): 16 µg/mL
[2]; strain EFM 15-1
  Anti-bacterial activity (MIC): 16 µg/mL
[2]; strain EFM 15-2
  Anti-bacterial activity (MIC): 16 µg/mL
[2]; strain EFM 15-3
  Anti-bacterial activity (MIC): 16 µg/mL
[2]; strain EFM 15-4
  Anti-bacterial activity (MIC): 1 µg/mL
[2]; strain EFM 15-5
  Anti-bacterial activity (MIC): 0.125 µg/mL
[2]; strain EFM 15-6
  Anti-bacterial activity (MIC): 0.5 µg/mL
[3]
  Anti-bacterial activity (MIC), strain ECO+ 15-1: 16 µg/mL
  Anti-bacterial activity (MIC), strain ECO+ 15-2: 32 µg/mL
  Anti-bacterial activity (MIC), strain ECO+ 15-3: 16 µg/mL
  Anti-bacterial activity (MIC), strain ECO+ 15-4: 16 µg/mL
  Anti-bacterial activity (MIC), strain ECO− 15-1: 16 µg/mL
  Anti-bacterial activity (MIC), strain ECO− 15-2: 16 µg/mL
  Anti-bacterial activity (MIC), strain ECO− 15-3: 32 µg/mL
  Anti-bacterial activity (MIC), strain ECO− 15-4: 8 µg/mL
[4]; strain BCA 14-1
  Anti-bacterial activity (MIC): 2 µg/mL
[4]; strain BCA 14-4
  Anti-bacterial activity (MIC): 2 µg/mL
[4]; strain BCA 14-5
  Anti-bacterial activity (MIC): 2 µg/mL
[4]; strain BCA 14-6
  Anti-bacterial activity (MIC): 2 µg/mL
[4]; strain BCA 14-7
  Anti-bacterial activity (MIC): 2 µg/mL
[4]; strain BCA 14-8
  Anti-bacterial activity (MIC): 2 µg/mL
[4]; strain BCA 14-10
  Anti-bacterial activity (MIC): 0.5 µg/mL
[5]; strain SPN 16-2
  Anti-bacterial activity (MIC): 0.25 µg/mL
[5]; strain SPN 16-4
  Anti-bacterial activity (MIC): 0.25 µg/mL
[6]
  Anti-bacterial activity (MIC), strain MRSA 15-1: 0.5 µg/mL
  Anti-bacterial activity (MIC), strain MRSA 15-2: 2 µg/mL
  Anti-bacterial activity (MIC), strain MRSA 15-3: 0.5 µg/mL
  Anti-bacterial activity (MIC), strain MRSA 15-4: 1 µg/mL
[7]
  Anti-bacterial activity (MIC), strain MRSE 15-1: 0.25 µg/mL
  Anti-bacterial activity (MIC), strain MRSE 15-2: 1 µg/mL
  Anti-bacterial activity (MIC), strain MRSE 15-3: 1 µg/mL
  Anti-bacterial activity (MIC), strain MRSE 15-7: 1 µg/mL
[8]
  Anti-bacterial activity (MIC), strain MSSA 15-3: 1 µg/mL
  Anti-bacterial activity (MIC), strain MSSA 15-4: 0.5 µg/mL
  Anti-bacterial activity (MIC), strain MSSA 15-5: 0.5 µg/mL
  Anti-bacterial activity (MIC), strain MSSA 15-6: 32 µg/mL
[9]
  Anti-bacterial activity (MIC), strain MSSE 15-3: 0.06 µg/mL
  Anti-bacterial activity (MIC), strain MSSE 15-4: 1 µg/mL
  Anti-bacterial activity (MIC), strain MSSE 15-5: 1 µg/mL
  Anti-bacterial activity (MIC), strain MSSE 15-6: 0.06 µg/mL
[10]; 30 µM
  HCT116 inhibition rate/%: 75%
[11]
  inhibition at 30 µM: > 50%
[11]; 72 hours, 30 µM
  Inhibition of proliferation, Lung cancer A549: 56%
[12]
  Inhibition of proliferation, Liver cancer BEL-7402: 74%
[13]
  inhibition at 30 µM: > 50%
[13]; 72 hours, 30 µM
  Inhibition of proliferation, Gastric cancer MGC-803: 60%

## O=C(C[C@@H](CC1CCCC1)C(=O)N1CC2(CC2)C[C@H]1C(=O)Nc1ncccc1F)NO [Example 67]
[1]; strain EFA 15-1
  Anti-bacterial activity (MIC): 32 µg/mL
[1]; strain EFA 15-2
  Anti-bacterial activity (MIC): 32 µg/mL
[1]; strain EFA 15-3
  Anti-bacterial activity (MIC): 32 µg/mL
[1]; strain EFA 15-4
  Anti-bacterial activity (MIC): 32 µg/mL
[1]; strain EFA 15-5
  Anti-bacterial activity (MIC): 32 µg/mL
[1]; strain EFA 15-6
  Anti-bacterial activity (MIC): 32 µg/mL
[1]; strain EFA 15-9
  Anti-bacterial activity (MIC): 8 µg/mL
[2]; strain EFM 15-1
  Anti-bacterial activity (MIC): 32 µg/mL
[2]; strain EFM 15-2
  Anti-bacterial activity (MIC): > 32 µg/mL
[2]; strain EFM 15-3
  Anti-bacterial activity (MIC): > 32 µg/mL
[2]; strain EFM 15-4
  Anti-bacterial activity (MIC): 2 µg/mL
[2]; strain EFM 15-5
  Anti-bacterial activity (MIC): 0.25 µg/mL
[2]; strain EFM 15-6
  Anti-bacterial activity (MIC): 0.25 µg/mL
[3]
  Anti-bacterial activity (MIC), strain ECO+ 15-1: 16 µg/mL
  Anti-bacterial activity (MIC), strain ECO+ 15-2: 16 µg/mL
  Anti-bacterial activity (MIC), strain ECO+ 15-3: 32 µg/mL
  Anti-bacterial activity (MIC), strain ECO+ 15-4: 32 µg/mL
  Anti-bacterial activity (MIC), strain ECO− 15-1: 32 µg/mL
  Anti-bacterial activity (MIC), strain ECO− 15-2: 32 µg/mL
  Anti-bacterial activity (MIC), strain ECO− 15-3: 32 µg/mL
  Anti-bacterial activity (MIC), strain ECO− 15-4: 32 µg/mL
[4]; strain BCA 14-1
  Anti-bacterial activity (MIC): 2 µg/mL
[4]; strain BCA 14-4
  Anti-bacterial activity (MIC): 2 µg/mL
[4]; strain BCA 14-5
  Anti-bacterial activity (MIC): 2 µg/mL
[4]; strain BCA 14-6
  Anti-bacterial activity (MIC): 2 µg/mL
[4]; strain BCA 14-7
  Anti-bacterial activity (MIC): 2 µg/mL
[4]; strain BCA 14-8
  Anti-bacterial activity (MIC): 2 µg/mL
[4]; strain BCA 14-10
  Anti-bacterial activity (MIC): 0.5 µg/mL
[5]; strain SPN 16-2
  Anti-bacterial activity (MIC): 0.25 µg/mL
[5]; strain SPN 16-4
  Anti-bacterial activity (MIC): 0.25 µg/mL
[6]
  Anti-bacterial activity (MIC), strain MRSA 15-1: 0.25 µg/mL
  Anti-bacterial activity (MIC), strain MRSA 15-2: 0.5 µg/mL
  Anti-bacterial activity (MIC), strain MRSA 15-3: 0.25 µg/mL
  Anti-bacterial activity (MIC), strain MRSA 15-4: 0.5 µg/mL
[7]
  Anti-bacterial activity (MIC), strain MRSE 15-1: 0.5 µg/mL
  Anti-bacterial activity (MIC), strain MRSE 15-2: 0.5 µg/mL
  Anti-bacterial activity (MIC), strain MRSE 15-3: 0.5 µg/mL
  Anti-bacterial activity (MIC), strain MRSE 15-7: 0.5 µg/mL
[8]
  Anti-bacterial activity (MIC), strain MSSA 15-3: 0.5 µg/mL
  Anti-bacterial activity (MIC), strain MSSA 15-4: 0.125 µg/mL
  Anti-bacterial activity (MIC), strain MSSA 15-5: 0.125 µg/mL
  Anti-bacterial activity (MIC), strain MSSA 15-6: 32 µg/mL
[9]
  Anti-bacterial activity (MIC), strain MSSE 15-3: 0.25 µg/mL
  Anti-bacterial activity (MIC), strain MSSE 15-4: 0.5 µg/mL
  Anti-bacterial activity (MIC), strain MSSE 15-5: 0.5 µg/mL
  Anti-bacterial activity (MIC), strain MSSE 15-6: 0.125 µg/mL
[10]; Table 5, read-out: Inhibition of proliferation, Colorectal cancer HCT116
  inhibition at 30 µM: ≥ 30%
[10]; read-out: HCT116 inhibition rate/%
  inhibition at 30 µM: 44%
[11]
  inhibition at 30 µM: 36%
[12]; Homo sapiens, Bel-7402, 72 h
  inhibition at 30 µM: > 50%
[12]
  Inhibition of proliferation, Liver cancer BEL-7402: 57%
[13]
  inhibition at 30 µM: 39%
